According to patent US20230097866A1, “BACTERIAL TOPOISOMERASE INHIBITORS DERIVED FROM ISOMANNIDE” (Ohio State Innovation Foundation, priority 2020, published 2023):
Converted amounts (≈) assume the structure as drawn.

How the values were obtained:
[1] = system: H37Rv (rpoB^S450L); format: cell-based, Mycobacterium tuberculosis
[2] = system: H37Rv (katG^del); assay: microbe, parasite or virus in culture; format: cell-based; details: Mycobacterium tuberculosis, microbroth dilution
[3] = system: H37Rv (gyrA^D94K); format: cell-based, Mycobacterium tuberculosis

SMILES | MIC H37Rv (rpoB^S450L) [1] [µg/mL] | MIC [2] [µg/mL] | MIC H37Rv (gyrA^D94K) [3] [µg/mL]
COc1ccc2ncc(F)c(CC[C@@]3(O)CO[C@@H]4[C@@H](NCc5ccc(Cl)c(Cl)c5)CO[C@@H]43)c2n1 [Compound 26, (3R,3aS,6S,6aR)-6-((3,4-dichlorobenzyl)amino)-3-(2-(3-fluoro-6-methoxy-1,5-napkthyridin-4-yl)ethyl)hexahydrofuro[3,2-b]-furan-3-ol] | 1 (≈ 1.97 µM) | 1 (≈ 1.97 µM) | 2 (≈ 3.93 µM)
COc1ccc2ncc(F)c(CC[C@@]3(O)CO[C@@H]4[C@@H](NCc5ccc(C)cc5)CO[C@@H]43)c2n1 [Compound 25, (3R,3aS,6S,6aR)-3-(2-(3-fluora-6-methoxy-1,5-naphthyridin-4-yl)ethyl)-6-((4-methyllbenzyl)amino)hexahydrofuro[3,2-b]furan-3-ol] | 4 (≈ 8.82 µM) | 4 (≈ 8.82 µM) | 16 (≈ 35.3 µM)
